Reference: the NIST ThermoML archive (doi:10.1016/j.fluid.2017.07.020)
“And” between values parts separate entries of the source, which are not always exact repeats. Equal values may be shown once.

How the values were obtained:
[1] = solid-solid phase transition pressure; settings: Crystal 2, DTA
[2] = Molar enthalpy of transition or fusion; settings: DSC

ClC12CC3CC(CC(C3)C1)C2 [1-chlorotricyclo[3.3.1.1(3,7)]decane]
Settings | Molar enthalpy of transition or fusion [kcal/mol] | solid-solid phase transition pressure [kPa]
[1], 250.4 K | – | 400
[1], 254.3 K | – | 15100
[1], 260.5 K | – | 47600
[1], 265 K | – | 52500
[1], 270.3 K | – | 73100
[1], 274.4 K | – | 98800
[1], 278.5 K | – | 104200
[1], 284.7 K | – | 123100
[1], 292.2 K | – | 153000
[1], 292.3 K | – | 150200
[1], 298.4 K | – | 173600
[1], 300.5 K | – | 199600
[1], 306.2 K | – | 204000
[1], 307 K | – | 216500
[1], 311.5 K | – | 221600
[1], 313.1 K | – | 237900
[1], 313.7 K | – | 242200
[1], 315.2 K | – | 237700
[1], 317.3 K | – | 241000
[1], 319.5 K | – | 261500
[1], 320.7 K | – | 266800
[2], Crystal 1 | 1.01 | –
[2], Crystal 2 | 1.42 | –

Settings | Triple point temperature [K]
Crystal 1, DSC | 438.6
Crystal 2, DTA | 249.5

BrC12CC3CC(CC(C3)C1)C2 [1-bromotricyclo[3.3.1.1(3,7)]decane]
Settings | Molar enthalpy of transition or fusion [kcal/mol] | phase transition pressure
286.4 K, Crystal 3, DTA | – | 36100 kPa
292.5 K, Crystal 3, DTA | – | 71200 kPa
299.2 K, Crystal 3, DTA | – | 93300 kPa
310.5 K, Crystal 3, DTA | – | 122500 kPa
310.7 K, Crystal 2, DTA | – | 31100 kPa
311.5 K, Crystal 3, DTA | – | 117100 kPa
316.4 K, Crystal 3, DTA | – | 151900 kPa
316.8 K, Crystal 3, DTA | – | 133700 kPa
317.9 K, Crystal 2, DTA | – | 48600 kPa
318.5 K, Crystal 2, DTA | – | 49700 kPa
321.1 K, Crystal 2, DTA | – | 48800 kPa
322.6 K, Crystal 2, DTA | – | 50400 kPa
323 K, Crystal 2, DTA | – | 40400 kPa
323.1 K, Crystal 2, DTA | – | 50000 kPa
323.9 K, Crystal 2, DTA | – | 49000 kPa
324.1 K, Crystal 2, DTA | – | 51800 kPa
324.7 K, Crystal 2, DTA | – | 45700 kPa
325.2 K, Crystal 2, DTA | – | 50900 kPa
325.4 K, Crystal 3, DTA | – | 151800 kPa
327.5 K, Crystal 3, DTA | – | 184900 kPa
329.6 K, Crystal 2, DTA | – | 72800 kPa
329.9 K, Crystal 2, DTA | – | 72400 kPa
330.6 K, Crystal 3, DTA | – | 175700 kPa
332 K, Crystal 2, DTA | – | 74500 kPa
333.7 K, Crystal 3, DTA | – | 227100 kPa
335.1 K, Crystal 2, DTA | – | 73100 kPa
337 K, Crystal 3, DTA | – | 199700 kPa
337.3 K, Crystal 2, DTA | – | 100700 kPa
337.4 K, Crystal 2, DTA | – | 95400 kPa
337.8 K, Crystal 2, DTA | – | 101000 kPa
342.8 K, Crystal 3, DTA | – | 256100 kPa
343.5 K, Crystal 2, DTA | – | 118200 kPa
347.6 K, Crystal 2, DTA | – | 128300 kPa
348.3 K, Crystal 2, DTA | – | 126000 kPa
351.4 K, Crystal 2, DTA | – | 126900 kPa
355.9 K, Crystal 2, DTA | – | 138100 kPa
358.3 K, Crystal 2, DTA | – | 153800 kPa
359 K, Crystal 2, DTA | – | 154300 kPa
362.3 K, Crystal 2, DTA | – | 155500 kPa
363.9 K, Crystal 2, DTA | – | 177800 kPa
369 K, Crystal 2, DTA | – | 182300 kPa
369.7 K, Crystal 2, DTA | – | 189300 kPa
372.5 K, Crystal 2, DTA | – | 178800 kPa
374.4 K, Crystal 2, DTA | – | 205600 kPa
377.4 K, Crystal 2, DTA | – | 205400 kPa
381.6 K, Crystal 2, DTA | – | 204700 kPa and 234100 kPa
382.7 K, Crystal 2, DTA | – | 224800 kPa
383.4 K, Crystal 2, DTA | – | 232100 kPa
389.6 K, Crystal 2, DTA | – | 255000 kPa
390.9 K, Crystal 2, DTA | – | 255000 kPa
392.5 K, Crystal 2, DTA | – | 261500 kPa
404.9 K, Crystal 1, DTA | – | 25800 kPa
406 K, Crystal 1, DTA | – | 32500 kPa
411.8 K, Crystal 1, DTA | – | 61300 kPa
414.6 K, Crystal 1, DTA | – | 56200 kPa
415.8 K, Crystal 1, DTA | – | 78400 kPa
436.7 K, Crystal 1, DTA | – | 160000 kPa
[2], Crystal 1 | 0.777 | –
[2], Crystal 2 | 1.6 | –
[2], Crystal 3 | 0.301 | –

Settings | Triple point temperature [K]
Crystal 1, DTA | 392
Crystal 2, DTA | 310.8
Crystal 3, DTA | 282.6
